Consider twelve molecules from US20180354962A1, “[{[2,3-Dihydro-1H-inden-1-yl]amino}-2H,3H-furo[3,2-b]pyridin-3-yl]acetic acids, pharmaceutical compositions and uses thereof” (Boehringer Ingelheim International GmbH, priority 2015, published 2018).

Series [1] addresses T1, cytochrome P450 2C8-isoenzyme (Homo sapiens, UniProt P10632).
T1 construct: is assayed at 37° C. with human liver microsomes; from tissue; host or cells: human liver microsomes
T1 sequence (P10632 1-490): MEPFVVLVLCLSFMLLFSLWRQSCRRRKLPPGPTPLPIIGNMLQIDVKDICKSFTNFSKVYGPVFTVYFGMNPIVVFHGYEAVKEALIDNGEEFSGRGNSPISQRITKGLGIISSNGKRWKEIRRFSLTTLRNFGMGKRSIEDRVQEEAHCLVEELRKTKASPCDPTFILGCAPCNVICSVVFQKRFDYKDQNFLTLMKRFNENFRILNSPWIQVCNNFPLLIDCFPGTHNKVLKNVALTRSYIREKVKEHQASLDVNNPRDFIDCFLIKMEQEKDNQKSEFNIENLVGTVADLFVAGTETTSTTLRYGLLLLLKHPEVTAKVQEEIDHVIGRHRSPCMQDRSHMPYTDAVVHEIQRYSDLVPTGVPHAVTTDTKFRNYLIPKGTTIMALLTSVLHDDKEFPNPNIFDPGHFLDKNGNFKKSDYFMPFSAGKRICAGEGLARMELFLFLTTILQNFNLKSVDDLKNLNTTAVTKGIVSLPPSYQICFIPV
Briefly: Inhibition of CYP-2C8 (amodiaquine deethylation, human liver microsomes). It is filed as in vitro ADME. As to conditions: human liver microsomes 0.05 mg/mL, amodiaquine 1 μM, 37° C. The method, then: All assays are carried out on a robotic system in 96 well plates. The final incubation volume contains TRIS buffer (0.1 M), MgCl2 (5 mM), human liver microsomes (0.05 mg/mL), amodiaquine (1 μM) and the test compound at five different concentrations or no compound (high control) in duplicate (e.g. highest concentration 10-50 μM with subsequent serial 1:4 dilutions). Following a short preincubation period, reactions are started with the cofactor (NADPH, 1 mM) and stopped by cooling the incubation down to 8° C. and subsequently by addition of one volume of acetonitrile. An internal standard solution—the stable isotope d5-desethylamodiaquine—is added after quenching of incubations. Peak area analyte (=metabolite formed) and internal standard is determined by LC-MS/MS. The resulting peak area ratio analyte to internal standard in these incubations is compared to a control activity containing no test compound. Within each of the assay runs, the IC50 of a positive control inhibitor (Montelukast) is determined. Experimental IC50 values are calculated by least square regression according to the following equation: % control activity=(100% control activity/(1+(I/IC50)S))−B with I=inhibitor concentration; S=slope factor; B=background activity (lower plateau of the inhibition curve) If the inhibition of the reaction is already >50% at the lowest concentration of the test compound, the IC50 is assigned “<lowest concentration tested” (usually <0.4 μM). If the inhibition of the reaction is still <50% at the highest concentration of the test compound, the IC50 is assigned “>highest concentration tested” (usually >50 μM).
In general terms: Microsomes from liver hold many membrane-bound enzymes, among them those of drug oxidation.

Series [2] addresses T2, cytochrome P450 2C9-isoenzyme (Homo sapiens, UniProt P11712).
T2 construct: is assayed at 37° C. with human liver microsomes; from tissue; host or cells: human liver microsomes
Put plainly: Inhibition of CYP-2C9 (diclofenac hydroxylation, human liver microsomes). It is filed as in vitro ADME. As to conditions: human liver microsomes 0.1 mg/mL, diclofenac 10 μM, 37° C. The method, then: All assays are carried out on a robotic system in 96 well plates. The final incubation volume contains TRIS buffer (0.1 M), MgCl2 (5 mM), human liver microsomes (0.1 mg/mL), diclofenac (10 μM) and the test compound at five different concentrations or no compound (high control) in duplicate (e.g. highest concentration 10-50 μM with subsequent serial 1:4 dilutions). Following a short preincubation period, reactions are started with the cofactor (NADPH, 1 mM) and stopped by cooling the incubation down to 8° C. and subsequently by addition of one volume of acetonitrile. An internal standard solution—the stable isotope 13C6-hydroxydiclofenac—is added after quenching of incubations. Peak area analyte (=metabolite formed) and internal standard is determined by LC-MS/MS. The resulting peak area ratio analyte to internal standard in these incubations is compared to a control activity containing no test compound. Within each of the assay runs, the IC50 of a positive control inhibitor (sulfaphenazole) is determined. Experimental IC50 values are calculated by least square regression according to the following equation: % control activity=(100% control activity/(1+(I/IC50)S)))−B with I=inhibitor concentration S=slope factor B=background activity (lower plateau of the inhibition curve) If the inhibition of the reaction is already >50% at the lowest concentration of the test compound, the IC50 is assigned “<lowest concentration tested” (usually <0.4 μM). If the inhibition of the reaction is still <50% at the highest concentration of the test compound, the IC50 is assigned “>highest concentration tested” (usually >50 μM).

For the next series, the target named is human GPR40 receptor (Homo sapiens, UniProt O14842). Briefly: IP1 accumulation measurements using the IPOne assay system. It is filed as cell-based. As to conditions: 1321N1 cells stably expressing human GPR40; 1 h stimulation at 37° C. On the procedure:
IP1 accumulation measurements using the IPOne assay system—1321N1 cells stably expressing human GPR40 receptor (Euroscreen, Belgium) are seeded 24 h before the assay in white 384-well plates in culture medium containing 10% FCS, 1% Na-Pyruvate and 400 μg/mL G418. IP1 is assayed according to the manufacturer's description (Cisbio Bioassays, France). In brief, the assay is started by substitution of the culture medium by stimulation buffer (Hepes 10 mM, CaCl2 1 mM, MgCl2 0.5 mM, KCl 4.2 mM, NaCl 146 mM, glucose 5.5 mM and LiCl 50 mM, pH 7.4). Cells are stimulated for 1 h at 37° C., 5% CO2 by addition of the compounds that are diluted in stimulation buffer containing LiCl. Assays are stopped by adding HTRF-conjugates (IP1-d2 and Anti-IP1 cryptate Tb) and lysis buffer, provided by the manufacturer. After an incubation time of 1 h at room temperature plates are measured using an EnVision™, Perkin Elmer. The obtained fluorescence ratios at 665/615 […] are then used to calculate the pEC50 values using Assay Explorer 3.3 Software (Accelrys, Inc.) by interpolation using an IP1 reference curve and subsequent sigmoidal curve fitting allowing for a variable hill slope.

A short description of series [3]: Aqueous solubility from DMSO stock, LC-UV. In kind it is physicochemical. As to conditions: aqueous buffer, kinetic from dmso stock; buffer pH 2.2, 24 h shaking, 2.5% DMSO. The method, then: The aqueous solubility of the compounds of the invention is determined by comparing the amount dissolved in buffer to the amount in an acetonitrile/water (1/1) solution. Starting from a 10 mM DMSO stock solution aliquots are diluted with acetonitrile/water (1/1) or buffer, respectively. After 24 h of shaking, the solutions are filtrated and analyzed by LC-UV. The amount dissolved in buffer is compared to the amount in the acetonitrile solution. Solubility is usually being measured from 0.001 to 0.125 mg/mL at a DMSO concentration of 2.5%. If more than 90% of the compound is dissolved in buffer, the value is marked with “>”.

Values after ≈ are worked out from the molar mass of the structure shown.

T2 sequence (P11712 whole entry): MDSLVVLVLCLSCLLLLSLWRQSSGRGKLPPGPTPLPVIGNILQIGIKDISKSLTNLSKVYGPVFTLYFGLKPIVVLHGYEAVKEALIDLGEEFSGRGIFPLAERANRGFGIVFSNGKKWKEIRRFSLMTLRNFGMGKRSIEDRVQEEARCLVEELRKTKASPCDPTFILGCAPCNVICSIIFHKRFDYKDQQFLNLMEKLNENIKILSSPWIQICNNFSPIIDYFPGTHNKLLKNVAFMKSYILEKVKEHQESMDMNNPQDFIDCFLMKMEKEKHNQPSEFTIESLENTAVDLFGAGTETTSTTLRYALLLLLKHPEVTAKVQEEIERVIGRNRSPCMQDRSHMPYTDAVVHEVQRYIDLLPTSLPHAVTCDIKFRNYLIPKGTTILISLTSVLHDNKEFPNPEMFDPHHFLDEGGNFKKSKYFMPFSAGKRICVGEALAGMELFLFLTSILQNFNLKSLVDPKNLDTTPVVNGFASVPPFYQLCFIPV
Sequence of human GPR40 receptor (O14842 whole entry): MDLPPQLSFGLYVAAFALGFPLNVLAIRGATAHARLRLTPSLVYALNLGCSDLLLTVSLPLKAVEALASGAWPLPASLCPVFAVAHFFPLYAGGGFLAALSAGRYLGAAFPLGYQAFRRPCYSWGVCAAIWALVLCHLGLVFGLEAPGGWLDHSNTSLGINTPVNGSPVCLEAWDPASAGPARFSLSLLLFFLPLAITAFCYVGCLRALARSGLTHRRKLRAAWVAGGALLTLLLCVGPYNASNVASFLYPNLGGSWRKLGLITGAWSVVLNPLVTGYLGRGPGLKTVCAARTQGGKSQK

A word on the IC50: it is the point on the concentration scale where inhibition reaches its midpoint. For `Cc1cc(OCCC(C)(C)O)cc(C)c1-c1cccc2c1CC[C@H]2Oc1ccc2c(c1)OC[C@H]2CC(=O)O` [7 (WO 2013/144098), reference compound], the IC50 is 5 µM in series [1] and above 10 µM in series [2].

What is called EC50 is the concentration giving half of the maximal effect. In the case of `Cc1cc(OCCC(C)(C)O)cc(C)c1-c1ccc(F)c2c1CC[C@H]2Nc1cnc2c(c1)OCC2CC(=O)O` (stereo partly drawn) [Example 1, 2-(6-{[(1R)-7-Fluoro-4-[4-(3-hydroxy-3-methylbutoxy)-2,6-dimethylphenyl]-2,3-dihydro-1H-inden-1-yl]amino}-2H,3H-furo[3,2-b]pyridin-3-yl)acetic acid], the IC50 in series [1] is 17 µM; in series [2] it was above 50 µM. This molecule came in with an EC50 at human GPR40 receptor of 0.057 µM.

A word on the solubility: it is the dissolved amount per volume that the medium holds. Higher therefore signals much dissolved substance. `Cc1cc(OCC(C)(C)O)cc(C)c1-c1cccc2c1CC[C@H]2Nc1cnc2c(c1)OCC2CC(=O)O` (stereo partly drawn) [Example 118, 2-(6-{[(1R)-4-[4-(2-Hydroxy-2-methylpropoxy)-2,6-dimethylphenyl]-2,3-dihydro-1H-inden-1-yl]amino}-2H,3H-furo[3,2-b]pyridin-3-yl)acetic acid]: the IC50 in series [1] and in series [2] was above 50 µM in each case. Also, on human GPR40 receptor, the EC50 came to 0.158 µM. Moreover, in series [3], the solubility at 24 h turned out to be 66 µg/mL (≈ 131 µM).

On to `Cc1cc(OC2CCOCC2)cc(C)c1-c1cccc2c1CC[C@H]2Nc1cnc2c(c1)OCC2CC(=O)O` (stereo partly drawn) [Example 119, 2-(6-{[(1R)-4-[2,6-Dimethyl-4-(oxan-4-yloxy)phenyl]-2,3-dihydro-1H-inden-1-yl]amino}-2H,3H-furo[3,2-b]pyridin-3-yl)acetic acid], for which the IC50 was 41 µM in series [1] and above 50 µM in series [2]. Besides, the EC50 at human GPR40 receptor was 0.09 µM. This molecule came in with a solubility at 24 h in series [3] of 16 µg/mL (≈ 31.1 µM).

`Cc1cc(-c2ccn(C)c(=O)c2)cc(C)c1-c1cccc2c1CC[C@H]2Nc1cnc2c(c1)OCC2CC(=O)O` (stereo partly drawn) [Example 120, 2-(6-{[(1R)-4-[2,6-Dimethyl-4-(1-methyl-2-oxo-1,2-dihydropyridin-4-yl)phenyl]-2,3-dihydro-1H-inden-1-yl]amino}-2H,3H-furo[3,2-b]pyridin-3-yl)acetic acid]: the IC50 in series [1] was 12 µM; in series [2] it was above 50 µM. This molecule also had an EC50 at human GPR40 receptor of 0.052 µM. In series [3], this molecule yielded a solubility at 24 h of 29 µg/mL (≈ 55.6 µM).

`Cc1cc(-c2ccc(=O)n(C)c2)cc(C)c1-c1cccc2c1CC[C@H]2Nc1cnc2c(c1)OCC2CC(=O)O` (stereo partly drawn) [Example 121, 2-(6-{[(1R)-4-[2,6-Dimethyl-4-(1-methyl-6-oxo-1,6-dihydropyridin-3-yl)phenyl]-2,3-dihydro-1H-inden-1-yl]amino}-2H,3H-furo[3,2-b]pyridin-3-yl)acetic acid]: the IC50 in series [1] was 29 µM; in series [2], above 50 µM. At human GPR40 receptor, this molecule came in with an EC50 of 0.061 µM. Also, the solubility at 24 h in series [3] was determined as 51 µg/mL (≈ 97.8 µM).

Turning to `Cc1cc(-c2nnn(CC(C)(C)O)n2)cc(C)c1-c1cccc2c1CC[C@H]2Nc1cnc2c(c1)OCC2CC(=O)O` (stereo partly drawn) [Example 122, 2-(6-{[(1R)-4-{4-[2-(2-Hydroxy-2-methylpropyl)-2H-1,2,3,4-tetrazol-5-yl]-2,6-dimethylphenyl}-2,3-dihydro-1H-inden-1-yl]amino}-2H,3H-furo[3,2-b]pyridin-3-yl)acetic acid], the IC50 in series [1] was 32 µM; in series [2], above 50 µM. Moreover, the EC50 at human GPR40 receptor amounted to 0.024 µM. Moreover, the solubility at 24 h in series [3] was 45 µg/mL (≈ 81.1 µM).

For the molecule `Cc1cc(OCC(C)(C)C#N)cc(C)c1-c1cccc2c1CC[C@H]2Nc1cnc2c(c1)OCC2CC(=O)O` (stereo partly drawn) [Example 123, 2-(6-{[(1R)-4-[4-(2-Cyano-2,2-dimethylethoxy)-2,6-dimethylphenyl]-2,3-dihydro-1H-inden-1-yl]amino}-2H,3H-furo[3,2-b]pyridin-3-yl)acetic acid], the IC50 in series [1] was 9 µM; in series [2], 28 µM. At human GPR40 receptor, the concentration for a half-maximal effect (EC50) was 0.153 µM. The molecule also came in with a solubility at 24 h in series [3] below 1 µg/mL.

`CCc1cccc(CC)c1-c1cccc2c1CC[C@H]2Nc1cnc2c(c1)OCC2CC(=O)O` (stereo partly drawn) [Example 124, 2-(6-{[(1R)-4-(2,6-Diethylphenyl)-2,3-dihydro-1H-inden-1-yl]amino}-2H,3H-furo[3,2-b]pyridin-3-yl)acetic acid]: the IC50 in series [1] amounted to 9 µM; in series [2], 49 µM. At human GPR40 receptor, this molecule returned an EC50 of 0.075 µM. In addition, the concentration in solution in series [3] (solubility at 24 h) was 6 µg/mL (≈ 13.6 µM).

Turning to `O=C(O)CC1COc2cc(N[C@@H]3CCc4c(-c5ccccc5C(F)(F)F)cccc43)cnc21` (stereo partly drawn) [Example 125, 2-(6-{[(1R)-4-[2-(Trifluoromethyl)phenyl]-2,3-dihydro-1H-inden-1-yl]amino}-2H,3H-furo[3,2-b]pyridin-3-yl)acetic acid], the IC50 in series [1] is 21 µM; in series [2], 47 µM. At human GPR40 receptor, the EC50 amounted to 0.693 µM. Further, in series [3], the solubility at 24 h was found to be 22 µg/mL (≈ 48.4 µM).

Turning to `Cc1cc(C(=O)N(C)C)cc(C)c1-c1cccc2c1CC[C@H]2Nc1cnc2c(c1)OCC2CC(=O)O` (stereo partly drawn) [Example 126, 2-(6-{[(1R)-4-[4-(Dimethylcarbamoyl)-2,6-dimethylphenyl]-2,3-dihydro-1H-inden-1-yl]amino}-2H,3H-furo[3,2-b]pyridin-3-yl)acetic acid], the IC50 in series [1] is 37 µM; in series [2], above 50 µM. Further, it took 1.87 µM to reach a half-maximal effect on human GPR40 receptor (EC50). The molecule also came in with a solubility at 24 h in series [3] of 79 µg/mL (≈ 163 µM).

`COc1cc(F)c(-c2cccc3c2CC[C@H]3Nc2cnc3c(c2)OCC3CC(=O)O)c(F)c1` (stereo partly drawn) [Example 127, 2-(6-{[(1R)-4-(2,6-Difluoro-4-methoxyphenyl)-2,3-dihydro-1H-inden-1-yl]amino}-2H,3H-furo[3,2-b]pyridin-3-yl)acetic acid]: the IC50 in series [1] was 27 µM; in series [2], above 50 µM. Further, a half-maximal effect at human GPR40 receptor (EC50) was put at 1.24 µM. In addition, in series [3], the solubility at 24 h was determined as 30 µg/mL (≈ 66.3 µM).
